Assay results as given in US7365223B2, “Method for selective targeting of apoptotic cells and small molecule ligands used thereof” (NST NeuroSurvival Technologies Ltd, priority 2003, dated 2008).

What was measured:
[1] = tested on: Jurkat cells undergoing apoptosis induced by anti-Fas Ab; assay: Selective binding to apoptotic Jurkat cells; flow-cytometric (FACS) analysis; assay type: cell-based, human; settings: 20 minutes
Description: Cultured Jurkat cells (human adult T cell leukemia cells) were grown in suspension in RPMI medium (Beit-Haemek, Israel), supplemented with 10% of fetal calf serum (FCS), 4 mM of L-glutamine, 1 mM of sodium pyruvate, […] and antibiotics (100 units/ml penicillin; 100 μg/ml streptomycin and 12.5 units/ml of nystatin). Prior to induction of apoptosis, medium was replaced with HBS buffer (10 mM HEPES; 140 mM NaCl, 1 mM CaCl). Apoptosis was then triggered by treatment with anti-Fas Ab (0.1 μg/ml; 3 hrs). As a result, a marked percentage of the cells became apoptotic, and is regarded as newly formed early apoptotic cells. Non-treated cells served as control. Both control cells and apoptotic cells were then incubated for 20 minutes with 100 μM of NST705. […] The analysis shown in FIG. 1 describes the uptake of NST705 compound into the population of apoptotic cells in control and anti-fas treated cultures.
In the dot plot shown in FIG. 1A and FIG. 1B, the left lower quadrant represents the healthy, non-stained fraction of cells. The right lower quadrant represents the newly formed population of cells in the early stages of apoptosis. These cells still maintain membrane integrity and thus exclude PI. Cells binding both NST705 and PI, i.e., cells in the late stages of apoptosis are represented in the right upper quadrant.
(§1) Cultured Jurkat cells (human adult T cell leukemia cells) were grown in suspension in RPMI medium (Beit-Haemek, Israel), supplemented with 10% of fetal calf serum (FCS), 2 mM of L-glutamine, 1 mM of sodium pyruvate, […] and antibiotics (100 units/ml penicillin; 100 μg/ml streptomycin and 12.5 units/ml of nystatin). Prior to induction of apoptosis, medium was replaced with HBS buffer (10 mM HEPES; 140 mM NaCl, 1 mM CaCl). Apoptosis was then triggered by treatment with anti-Fas Ab (0.1 μg/ml; 3 hrs). As a result, a marked percentage of the cells became apoptotic. Non-treated cells served as control. Both control cells and apoptotic cells were then incubated for 20 minutes with 100 μM of NST703. Subsequently, cells were co-stained with propidium iodide (P). Binding of NST703 to the control and apoptotic cells was determined by flow cytometric (FACS) analysis using Becton-Dickinson cell sorter and CellQuest software (excitation was at 356 nm and emission was measured at 530 nm).
In the dot plot shown in FIG. 2A and 2B, the left lower quadrant represents the healthy, non-stained fraction of cells. The right lower quadrant represents the newly formed population of cells in the early stages of apoptosis. These cells still maintain membrane integrity and thus exclude PI. Cells binding both NST703 and PI, i.e., cells in the late stages of apoptosis are represented in the right upper quadrant.
as §1, with “penicilin;” for “penicillin;”, “DC.” for “NST703.”, “(PI).” for “(P).”, “DC” for “NST703”
FIG. 4A and FIG. 4B are each a representative FACS dot plot, showing that activation of apoptosis leads to a marked uptake of DC by cells in the early stages of apoptosis (FIG. 4B), as compared to control cells (FIG. 4A). […]

[2] = tested on: apoptotic cells in B16-F10 murine melanoma tumor; assay: Targeting in-vivo to apoptotic cells in tumor, murine melanoma; fluorescent microscopy; design: species or system mice; settings: 2 mg/mouse intravenously, 2 hours
Description: Tumors, and especially aggressive malignancies such as melanoma are characterized, in addition to the abnormal tissue proliferation, also by marked apoptosis of tumor cells. The performance of DC in selective targeting of these apoptotic cells within the tumor was therefore examined Mice (c57/black; 8 weeks old male mice) were injected subcutaneously bilaterally, in the flank, with murine melanoma-derived B16-F10 cells (ATCC CRL-6475; 10^5 cells/mice in a volume of 100 μl). Prior to injection, the cell line was maintained in culture in Dulbecco's modified Eagle's medium (DMEM), supplemented with 4 mM of L-glutamine; 100 units/ml of penicillin; 100 μg/ml of streptomycin; 12.5 units/ml of nystatin and 10% of fetal calf serum (FCS). Tumors were allowed to grow for 14 days, by which they reached a diameter of 5-7 mm.
The DC compound (2 mg/mouse in NaPpi buffer, pH. 7.40) was injected intravenously. Two hours later, the mice were scarified and the tumors, as well as other organs were taken, and immediately frozen in liquid nitrogen. Frozen sections were then prepared from each of the organs. Uptake of DC by the tumors or other organs was assessed by fluorescent microscopy.
The performance of NST730 in selective targeting to apoptotic cells within a tumor examined as described in Example 7. Mice (c57/black; 8 weeks old male mice) were injected subcutaneously bilaterally, in the flank, with murine melanoma-derived B16-F10 cells (ATCC CRL-6475; 10^5 cells/mice in a volume of 100 μl). Tumors were allowed to grow for 14 days, by which they reached a diameter of 5-7 mm.
The NST730 compound (2 mg/mouse in NaPpi buffer, pH. 7.40) was injected intravenously. Two hours later, the mice were scarified and the tumors, as well as other organs were taken, and immediately frozen in liquid nitrogen. Frozen sections were then prepared from each of the organs. Uptake of NST730 by the tumors or by other organs was assessed by fluorescent microscopy.

[3] = tested on: chemotherapy-induced apoptotic cells of lymphoma tumors; assay: In-vivo targeting to chemotherapy-induced apoptotic cells of lymphoma tumors; fluorescent microscopy; settings: DBA/2 mice, Taxol 20 mg/Kg; 1.4 mg/mouse injected 24 h later, 2 hours
Description: Lymphoma tumors were induced in 8 weeks old male DBA/2 mice (Harlan laboratories, UK) by subcutaneous injection of lymphoma cells. The cells, from a chemically-induced LY-R clone were obtained from ATCC(CRL-1722), and maintained by subsequent passages in mice. For induction of tumors, 5×10^5 cells in a volume of 100 μl were injected into the thigh region in mice. […] Twenty-four hours later, NST705 was injected systemically at a dose of 1.4 mg/mouse. Two hours later, mice were sacrificed and tumors were frozen in liquid nitrogen. Cryosections were then prepared and serial slides were subjected to either hematoxylin & eosin (H&E) staining or fluorescent microscopy evaluation (excitation wavelength of 360 nm, emission at 530 nm), using an Olympus fluorescent microscope (model IX70).

[4] = tested on: neuronal cell death following MCA occlusion; assay: Detection of neuronal cell death following middle cerebral artery (MCA) occlusion; assay type: in vivo; settings: Balb/C mice; 70 mg/kg intravenously 22 hours after MCA cauterization, 2 hours
Description: Cerebral ischemia was induced in Balb/C mice (10-12 weeks) by cauterization of the middle cerebral artery. Mice were anesthetized, and the temporal bone was exposed. Scraping off the bone up to a minimal hole allowed exposure of the artery subjecting it to cauterization. 22 hours later, NST732 (70 mg/kg) was injected intravenously. Two hours later (at 24 h from induction of the injury), mice were anesthetized and sacrificed, and brains were removed into liquid nitrogen for histopathological analysis of the frozen sections. Four μm thick sections were prepared for fluorescent microscopic analysis to follow the cells stained positively with NST732.
Cerebral ischemia was induced in Balb/C mice (10-12 weeks) by cauterization of the middle cerebral artery. Mice were anesthetized, and the temporal bone was exposed. Scraping off the bone up to a minimal hole allowed exposure of the artery subjecting it to cauterization, 22 hours later, NST730 (70 mg/kg) was injected intravenously. Two hours later (at 24 h from induction of the injury), mice were anesthetized and sacrificed, and brains were removed into liquid nitrogen for histopathological analysis of the frozen sections, as described in Example 11.

[5] = tested on: murine lymphoma cells undergoing cell death induced by irradiation; assay: Detection of cell death induced by irradiation in vivo; murine lymphoma; settings: irradiated DBA mice (3 fractions of 6 Gray); 70 mg/kg intravenously, 2 hours
Description: DBA mice (5-6 weeks old males, Jackson laboratories) were injected subcutaneous with 10^6 lyS cells in 50 μl saline and were examined daily for tumor formation. At days 8, 9 and 10 mice were placed in a Perspex box and irradiated with 6MV x-rays apparatus (Linac) in fractions of 6 Gray each. Each mouse received a dose of about 1.0 centiGray per monitor unit. At day 13 (72 hours following the last irradiation) mice were injected intravenously with NST 732 (70 mg/kg, dissolved in Tris base containing 25% cremophore RH410, pH=9). After 2 hours, tumors were excised, frozen in liquid nitrogen and submitted for histopathological assessment.

apoptotic HeLa S3 cells = assay: Selective binding to apoptotic HeLa cells in vitro; flow-cytometric analysis; assay type: cell-based; settings: culture aged 96 hours; FACS
Description: HeLa S3 cells (ATCC CCL-2.2) were grown in Dulbecco's modified Eagle's medium (DMEM), supplemented with 2 mM of L-glutamine; 100 units/ml of penicillin; 100 μg/ml of streptomycin; 12.5 units/ml of nystatin and 10% of fetal calf serum (FCS). Cells were seeded at a density of 5×10^6 cells/plate, on a […] culture plates, in a volume of 10 ml, and were allowed to age by incubating the culture for 96 hours without exchange of the growth medium. As a result, a marked percentage of the cells became apoptotic. Cells were harvested using a cell scraper, separated to single cells by passage through a syringe with a 18 G needle, and re-suspended at a density of 10^6 cells/ml in PBS buffer at pH=7.4. […] The analysis shown in FIG. 10 describes the uptake of NST601 compound into the population of apoptotic cells.

[6] = apoptotic cells (anti-Fas Ab 0.1 μg/ml, 3 hrs), 100 μM compound
[7] = non-treated control cells, 100 μM compound

CN(C)c1cccc2c(S(=O)(=O)N[C@@H](CS)C(=O)O)cccc12 [DC, dansylcysteine]
percent of identified early apoptotic events within the population (cells binding compound, excluding PI) [1, 6]: 76% | percent of identified early apoptotic events within the population (cells binding compound, excluding PI) [1, 7]: 2.3% | binding to normal, viable tissue ([2]; small intestine tissue of the same animal): lack of binding | binding to tumor cells undergoing apoptosis [2]: Extensive binding | staining of viable tumor cells [2]: remain unstained

CCCCN(CCCC)c1cccc2c(S(=O)(=O)N[C@@H](CC(=O)O)C(=O)O)cccc12 [NST705, (5-dibutylamino-naphthalene-1-sulfonyl)-L-aspartic acid]
uptake by tumor cells undergoing cell death [3]: marked uptake | uptake by viable, non-apoptotic tumor cells [3]: not observed | percent of identified early apoptotic events within the population (cells binding compound, excluding PI) [1, 6]: 70.8% | percent of identified early apoptotic events within the population (cells binding compound, excluding PI) [1, 7]: 3%

CCCCN(C)c1cccc2c(S(=O)(=O)NCC(=O)O)cccc12 [NST703, (5-Butylmethylamino-naphtalene-1-sulfonyl)-glycine]
percent of identified early apoptotic events within the population (cells binding compound, excluding PI) [1, 6]: 75.6% | percent of identified early apoptotic events within the population (cells binding compound, excluding PI) [1, 7]: 3.27%

CN(C)c1cccc2c(S(=O)(=O)NC(C)(CF)C(=O)O)cccc12 (stereo not drawn) [NST730]
binding to cells in the infarcted (damaged) area [4]: extensive binding | binding to cells outside the infarcted area [4]: did not manifest significant binding | binding to other non-target tissues ([2]; colon, kidney, spleen and heart): lack of significant binding | binding to normal, viable tissue ([2]; muscle tissue of the same animal): lack of binding | binding to tumor cells undergoing apoptosis [2]: Extensive binding | staining of viable tumor cells [2]: remain unstained

CCC(CF)(NS(=O)(=O)c1cccc2c(N(C)C)cccc12)C(=O)O (stereo not drawn) [NST732]
binding to cells in the infarcted (damaged) area [4]: extensive binding | binding to cells outside the infarcted area [4]: did not manifest significant binding | binding to tumor cells undergoing apoptosis [5]: extensive binding

CN(C)c1cccc2c(S(=O)(=O)O)cccc12 [DA, dansylic acid]
percent of identified early apoptotic events within the population (cells binding compound, excluding PI) ([1]; apoptotic cells (anti-Fas Ab 0.1 μg/ml, 3 hrs), 250 μM compound): 77% | percent of identified early apoptotic events within the population (cells binding compound, excluding PI) ([1]; non-treated control cells, 250 μM compound): 4.2%

CCCCN(C)c1cccc2c(S(=O)(=O)O)cccc12 [NST601, 5-Butylmethylamino-naphtalene-1-sulfonic acid]
binding to apoptotic cells (apoptotic HeLa S3 cells): selective binding | staining of cells that do not undergo a process of cell death (apoptotic HeLa S3 cells): remained non-stained
